Consider one molecule from ChEMBL document CHEMBL2069186, “Getting the MAX out of Computational Models: The Prediction of Unbound-Brain and Unbound-Plasma Maximum Concentrations” (ACS Med Chem Lett, 2012).

One data set has as its system Brain. Put plainly: Dose normalized fCmax in C57BL/6J mouse brain at 10 mg/kg, po. The note with it: in vivo. Also on record: dose 10 mg/kg, route oral. It is filed as ADME, organism-based.
The next data set relates to Plasma. Briefly: Dose normalized fCmax in C57BL/6J mouse plasma at 10 mg/kg, po. The format is ADME, organism-based. Also on record: dose 10 mg/kg, route oral. The note with it: in vivo.

The structures appear in SMILES notation.

On to `Nc1ncnc2c1c(COc1cccc(Cl)c1)nn2C1CCOCC1`, for which the results for the fCmax/dose in the data set with Brain and with Plasma were 88 nM and 180 nM, respectively.
